Assay results as given in patent publication US11780815B2, “DNA2 inhibitors for cancer treatment” (City of Hope, priority 2016, dated 2023).
Read-outs that look alike come from different tables or passages of the source.

Key:
[1] = test system: phosphorylated RPA2 and γH2AX in MCF7 and A549 cells; assay: Phosphorylated RPA and γH2AX after CPT (western blot, immunofluorescence)
[2] = test system: BRCA2- or BOD1L-depleted or mock transfected U2OS cells; assay: P-RPA foci in fork protection defective cells after HU; assay type: cell-based, human
Text: Fork protection is a DNA break repair-independent pathway suppressing genomic instability (Schlacher et al, 2011; Schlacher et al, 2012). The fork protection pathway is mediated by BRCA2, BRCA1, RAD51, members of the Fanconi anemia pathway, and […]. In the absence of any of these factors, excessive nascent DNA degradation occurs at stalled replication forks. This degradation is prevented if the end-resection protein MRE11 is inhibited either by siRNA knockdown or by inhibition of MRE11 nuclease by the small molecule mirin (Schlacher et al., 2011; Schlacher et al., 2012). MRE11 functions upstream of DNA2 in resection of double-strand breaks, and DNA2, in addition to MRE11 has been implicated in over-resection at stalled replication forks in BOD1L and in RAD51 impaired cells, since over-resection is suppressed by knockdown of DNA2 in the absence of BOD1L or in a RAD51 mutant cell line (Higgs et al., 2015; Wang et al., 2015). […] . After treatment of the BRCA2- or BOD1L-depleted U2OS cells with HU, which stalls forks but is not expected to produce DSBs (Petermann et al., 2010; Schlacher et al., 2011; Schlacher et al., 2012), and which are fork protection defective, we observed a dramatic increase in P-RPA positive cells indicative of nascent DNA degradation upon treatment with HU (FIGS. 6C and FIG. 12B). […] . The potency of C5 was estimated by comparing the effect of mirin, the MRE11 inhibitor, in the same experiment. […] . Our results are in keeping with previous work showing that knockdown of DNA2 counteracts excessive nascent strand degradation in both BOD1L and in RAD51 impaired cells (Higgs et al., 2015; Wang et al., 2015). […] .

[3] = target: FEN1 (Homo sapiens, UniProt P39748); conditions: Liu et al EBioMedicine 6 (2016) 73-86; cited from earlier work
[4] = test system: MCF7 breast cancer cells; assay: Clonogenic assay, combination with CPT or MK4827; assay type: cell-based, human; conditions: for IC50: Homo sapiens, MCF7
Protocol: The survival rate of the cells treated with various concentrations of CPT was calculated by normalizing the number of colonies to that of the cells without CPT treatment. The survival rate of the cells without CPT treatment was arbitrarily set as 1. […] The IC50 and combination index (CI) was calculated using the Compusyn program. FIG. 7B: Representative inhibition curve of varying concentrations of C5 from 0 to 10 μM in combination with MK4827 (0 or 1 μM).
To test our hypothesis that inhibition of DNA2 synergizes with other chemotherapeutic agents, we treated cells with CPT and C5.

[5] = test system: A549 cells; assay: DNA fiber assay, replication fork restart; conditions: for percentage of restarting forks: 20 μM C5
[6] = test system: MCF7 cells; assay: Cell survival of control (shSCR) or DNA2 knockdown MCF7 cells; assay type: cell-based, human; conditions: 1 μM C5 for 4 days
Text: . […] The live cells were counted.

[7] = test system: FANCD2−/− fibroblasts; assay: Cisplatin sensitivity of FANCD2−/− cells; conditions: 125 nM cisplatin, 10 μM C5, compared to cells not treated with C5
[8] = test system: U2OS cells carrying the GFP reporter gene; assay: DSB repair reporter assays (I-SceI/GFP, HDR and SSA); assay type: cell-based, human
Text: To further validate C5 as a DNA2 inhibitor, we tested its effects on DNA2 functions known to be affected by knockdown or deletion of DNA2 in previous studies (Howard et al., 2015; Karanja et al., 2014; Karanja et al., 2012; Peng et al., 2012). We first determined the effect of C5 on two recombination pathways, SSA (single-strand annealing) and homologous recombination (HR), using I-SceI/GFP-based reporter assays. […] . HDR-GFP and SSA-GFP were integrated in U2OS cells (Gunn and Stark, 2012; Howard et al., 2015). […] . The cells were harvested and the GFP+ frequencies (repair frequencies) were determined by flow cytometry using a CyAn ADP Analyzer (Beckman Coulter, Inc.).

[9] = test system: HCT116 DNA2 flox/+/+ cells; assay: Synthetic lethality of C5 with FEN1, EXO1 or MRE11 siRNA knockdown; assay type: cell-based, human
Protocol: FIGS. 13A-13C. Synergy between C5 and FEN1. […] . On day 1, HCT116 DNA2^flox/+/+ and HCT116 DNA2^flox/−/− cells (3*10^6 were plated in 10 cm dishes, respectively. On day 2, the genetic knockout of DNA2 was induced with tamoxifen as previously described (Karanja et al., 2014). Control wells contained EtOH. On day 3, the tamoxifen floxed cells, now DNA2^−/+/+ and DNA2^−/−/−, and DNA2^flox/+/+ controls were plated on 24 well plates, 20,000 to 30,000 cells per well, and incubated overnight. On day 4, wells were transfected with 20 pmole control SCR siRNA or FEN1 (FIG. 13A), EXO1 (FIG. 13B), or MRE11 (FIG. 13C) si RNAs, respectively, as previously described using GeneMute. siRNAs were obtained from Invitrogen: FEN1 (HSS103627, HSS103629, HSS176903), MRE11 (HSS142960, HSS142961, HSS181171), EXO1 (HSS113557, HSS113558, HSS113559). Cells were incubated overnight. […] . Cells were cultured for an additional 3 days, until DNA2 ^flox/+/+ cells lacking C5 were confluent. As a control for the efficacy of C5, the effect of genetic knockdown of DNA2 was tested in the presence the respective siRNA treated DNA2^−/−/− (gray curves). Cells were then washed with PBS, trypsinized and stained with tryphan blue to differentiate live cells from dead cells. Cells were counted microscopically in a Neubauer chamber. Error bars represent data from duplicate experiments. […] .
In yeast, pathways mediated by DNA2 overlap with repair or replication by FEN1, EXO1, or MRE11 and not with others (Budd, M. E., Tong, A. H., Polaczek, P., Peng, X., Boone, C., and Campbell, J. L. (2005). A network of multi-tasking proteins at the DNA replication fork preserves genome stability. PLoS genetics 1, e61). Thus, mutants defective in FEN1, EXO1, or MRE11 are viable only in the presence of active DNA2. Double mutants deficient in DNA2 and FEN1, EXO1, or MRE11, respectively, are inviable, especially in the presence of DNA damage. This effect is called synthetic lethality. To test for synthetic lethality, deficiency in DNA2, can be induced either by genetic mutation or, if a specific inhibitor is available, by inhibition of DNA2. We reasoned that if DNA2 is the major cellular target of C5, then cells deficient in FEN1, EXO1, or MRE11 should be hypersensitive to C5, i.e. C5 should synergize with deficiency in any one of these three genes. We have now shown that this is the case in both yeast and in human cells (FIGS. 13A-13C, human cells and FIG. 14, yeast cells). […] . […] After floxing, i.e. induction of Cre nuclease with tamoxifen, this strain becomes a complete DNA2 knockout. […] .

[10] = test system: drug-sensitive yeast strains (rad27 mutants, wild-type); assay: Yeast dilution assay, survival after MMS or high temperature; conditions: rad27 mutants lacking FEN1, serial 10 fold dilutions
[11] = test system: panel of 18 cell lines of 4 major types of cancers; assay: Cell proliferation assay, panel of cancer cell lines
[12] = test system: mouse embryonic stem (MES) cells; assay: Cell survival of WT and DNA2 knockout MES cells; assay type: cell-based; conditions: 1 μM C5 for 4 days

Chain of FEN1 (P39748 whole entry, species assumed): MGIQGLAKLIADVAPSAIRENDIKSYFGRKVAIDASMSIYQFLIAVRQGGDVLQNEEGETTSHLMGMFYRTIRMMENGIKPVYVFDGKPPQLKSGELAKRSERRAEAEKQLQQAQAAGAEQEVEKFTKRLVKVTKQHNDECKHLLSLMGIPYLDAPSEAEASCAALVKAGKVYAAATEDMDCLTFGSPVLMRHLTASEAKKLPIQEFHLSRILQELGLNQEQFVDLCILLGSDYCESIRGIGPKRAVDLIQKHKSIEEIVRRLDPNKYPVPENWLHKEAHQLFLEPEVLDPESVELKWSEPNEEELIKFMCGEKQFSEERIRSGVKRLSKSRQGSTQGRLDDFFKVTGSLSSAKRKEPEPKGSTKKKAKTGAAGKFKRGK

## O=C(O)c1cnc2c([N+](=O)[O-])cccc2c1O [C5]
[1]; 10 μM C5 for 24 hours, then 1 μM CPT for 4 hours
  CPT-induced P-RPA level in γH2AX-positive cells: significantly reduced
[1]; C5 alone, 10 μM
  γH2AX level: background increase
[2]; BRCA2- or BOD1L-depleted U2OS cells, 4 mM HU 5 h, 20 μM C5
  nascent DNA degradation (P-RPA positive cells): suppressed
[2]; BRCA2- or BOD1L-depleted U2OS cells, HU, 20 μM C5
  potency in reducing nascent DNA degradation relative to mirin: comparable potency to 50 μM mirin
[2]; BRCA2-deficient cells, 4 mM HU 5 h
  reduction in P-RPA foci: equivalent to that observed in a DNA2 knockdown
[2]; mock-depleted cells, absence of HU
  number of P-RPA positive cells: neither mirin nor C5 significantly decreased
[3]
  inhibition of FEN1: not inhibited
[4]; C5 0 to 10 μM, MK4827 0 to 1 μM
  combination with MK4827, survival of MCF7 cells: strong synergistic effect
[4]; C5 1 μM with different concentrations of CPT
  combination with CPT, cellular lethality: synergistic
[4]
  IC50: 1900 nM
[4]; MK4827 (1 μM) and C5 (2 μM), Compusyn
  combination index: 0.13
[5]; CPT-treated cells (150 nM CPT), 75% in absence of C5
  percentage of restarting forks: 50%
[5]; HU-treated cells (2 mM HU), 80% in absence of C5
  percentage of restarting forks: 60%
[5]; high levels of CPT (2 μM), 10 μM C5
  replication fork restart: inhibited restart
[6]; DNA2 knockdown human cancer cells
  effect on survival rate: did not further reduce the survival rate
[6]; human cancer cells (printed MEF7)
  survival rate compared to the untreated WT control: 60%
[7]
  survival of cisplatin-treated cells: increase in survival
[8]; 0, 10, 20, 40, 60 μM C5, 72 h
  HR (homologous recombination) frequency: reduced by C5 in a dose-dependent manner
  SSA (single-strand annealing) frequency: reduced by C5 in a dose-dependent manner
[8]; 60 μM C5
  HR frequency compared with siRNA DNA2 knockdown: reduced to the same level as in an siRNA DNA2 knockdown
  SSA frequency compared with siRNA DNA2 knockdown: reduced to the same level as in an siRNA DNA2 knockdown
[9]; scrambled siRNA
  cell killing by increasing levels of C5: resistant
[9]; siRNA knockdown of EXO1
  cell killing by increasing levels of C5: killed by increasing levels of C5
[9]; siRNA knockdown of FEN1
  cell killing by increasing levels of C5: killed by increasing levels of C5
[9]; siRNA knockdown of MRE11
  cell killing by increasing levels of C5: killed by increasing levels of C5
[10]
  sensitisation of rad27 yeast to DNA damage: synergizes with MMS and with deletion of rad27
[11]
  cytotoxicity to human cancer cells among the nuclease-inhibiting hits: highest cytotoxicity
[12]
  effect on survival rate: did not further reduce the survival rate

## CCCCNC(=O)c1c[nH]c2c([N+](=O)[O-])cccc2c1=O [C5-2]
[10]
  sensitisation of rad27 yeast to DNA damage: more effective than C5

## NC(=O)c1cccc2cn(-c3ccc([C@@H]4CCCNC4)cc3)nc12 [MK4827, 2-{4-[(3S)-piperidin-3-yl]phenyl}-2H-indazole-7-carboxamide, reference compound]
[4]; clonogenic assay, single agent, read-out: IC50
  IC50: 800 nM
